Experimental data from patent publication US20100112012A1, “MODULATION OF IMMUNE RESPONSES” (CLEVELAND CLINIC FOUNDATION, priority 2005, published 2010).

Columns and labels:
ovalbumin-specific IgG = test: Ovalbumin immunization, ovalbumin-specific IgG titers by ELISA; type: in vivo, BALB/c mice; settings: ovalbumin 100 ug i.p. days 0 and 7; quinacrine 80 mg/kg days 1, 2, 8 and 9; serum day 14
[1] = tested on: proinflammatory cytokines in the skin; test: IL-1β, TNFα, CCL21 and IκBα expression in sensitized skin (RT-PCR, ELISA); type: in vivo, BALB/c mice; settings: quinacrine on days −2 plus −1, 0.25% DNFB
Experimental: Naive and sensitized mouse skin (˜200 mg) was snap frozen in liquid nitrogen and then ground using a mortar and pestle in liquid nitrogen. Total RNA was extracted using the RNeasy Tissue Kit (Qiagen, Inc., Valencia, Calif.) according to the manufacturer's protocol. For synthesis of cDNA, 2 mg of total RNA from each sample was resuspended in 10 ml of the reaction buffer. cDNA synthesis was performed using M-MLV reverse transcriptase (Promega Corporation, Madison, Wis.) with random primers according to the manufacturer's protocol. The reaction was stopped by denaturing the enzyme at 99° C. for 5 min. and the mixture was diluted with distilled water to a final volume of 50 ml. Aliquots (3 ml) of the synthesized cDNA were added to 47 ml of PCR mixture, containing 1×PCR buffer, MgCl2 (1.5 mM), dNTP (0.2 mM each), primer mix (0.5 mM each) and 2.0 units of Taq DNA polymerase (all from Invitrogen Corp., Carlsbad, Calif.). PCR primers for mouse GAPDH, IκBα, TNF-α, IL-1β and CCL21 were purchased from Integrated DNA Technologies, Inc. (Coralville, Iowa) and contained the following sequences:
Amplification was initiated by 1 min of denaturation at 95° C. for 1 cycle. […] For each set of primers, dilutions of cDNA were amplified for 20-40 cycles to define optimal conditions for linearity and to permit semi-quantitative analysis of signal strength. […]

CCN(CC)CCCC(C)Nc1c2ccc(Cl)cc2nc2ccc(OC)cc12 (centres unmarked) [QC, quinacrine]
increase of antigen-specific titers of IgG (ovalbumin-specific IgG): 4 fold | antigen-induced mRNA expression and protein production of proinflammatory cytokines in the skin [1]: decreases antigen-induced mRNA expression and protein production of proinflammatory cytokines in the skin
